Experimental data published in US4977141A, “Peptidyl α-aminoacyl aminodiol carbamates as anti-hypertensive agents” (G. D. Searle & Co., priority 1987, dated 1990).
One block for each compound: values may come before it. Square brackets hold non-standard residues; d marks the D form. Peptide text beside a SMILES is read from it. * marks the point of attachment. Sta = CC(C)C[C@H](N)[C@@H](O)CC(=O)O; Isovaleryl = CC(C)CC(=O)*

Columns and labels:
human renin = target: T1, human renin (Homo sapiens, UniProt P00797); test: human renin inhibition in vitro assay; format: biochemical; conditions: pH 7.4, 37° C., two hours, human plasma substrate
T1 construct: purchased National Institute for Biological Standards, London
T1 sequence (P00797 67-406): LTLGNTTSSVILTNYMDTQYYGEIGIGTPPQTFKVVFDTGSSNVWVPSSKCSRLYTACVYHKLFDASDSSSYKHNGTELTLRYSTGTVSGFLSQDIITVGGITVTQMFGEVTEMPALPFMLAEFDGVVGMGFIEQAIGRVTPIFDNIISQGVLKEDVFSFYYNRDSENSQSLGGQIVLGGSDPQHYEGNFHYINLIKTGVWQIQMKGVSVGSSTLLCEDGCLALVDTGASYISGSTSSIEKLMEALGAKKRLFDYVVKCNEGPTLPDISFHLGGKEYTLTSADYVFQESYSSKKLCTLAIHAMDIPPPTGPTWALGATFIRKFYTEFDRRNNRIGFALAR
Experimental: Compounds of Formula I were evaluated as inhibitors of human renin in an in vitro assay, as follows: This human renin inhibition test has been previously described in detail [Papaioannou, et. al., Clinical and Experimental Hypertension, A7(9), 1243-1257 (1985)]. Human renin was obtained from the National Institute for Biological Standards, London. In a total volume of 0.25 mL 100 mM Tris-acetate buffer at PH 7.4, 25×10^-6 Goldblatt units of renin, 0.05 mL of plasma from human volunteers taking oral contraceptives, 6.0 mM sodium EDTA, 2.4 mM phenylmethyl sulfonyl fluoride, 1.5 mM 8-hydroxyquinoline, 0.4 mg/mL BSA, and 0.024 mg/mL neomycin sulfate were incubated for two hours at 37° C. in the presence or absence of renin inhibitors. The produced angiotensin I was determined by radioimmunoassay (New England Nuclear kit). Dipeptide glycols to be assayed were solubilized in either ethyl alcohol or DMSO and diluted with 100 mM Tris-acetate buffer at pH 7.4 to the appropriate concentration. The final concentration of organic solvent in the reaction mixture was less than 1%. Control incubations at 37° C. were used to correct for effects of organic solvent on renin activity.

hog renin = target: T2, hog renin (Sus scrofa, UniProt A0A287APG1); test: hog renin inhibition assay; format: biochemical; conditions: pH 7.4, 37° C., one hour, synthetic tetradecapeptide substrate
T2 construct: purchased Sigma Chemical Co
T2 sequence (A0A287APG1 24-407): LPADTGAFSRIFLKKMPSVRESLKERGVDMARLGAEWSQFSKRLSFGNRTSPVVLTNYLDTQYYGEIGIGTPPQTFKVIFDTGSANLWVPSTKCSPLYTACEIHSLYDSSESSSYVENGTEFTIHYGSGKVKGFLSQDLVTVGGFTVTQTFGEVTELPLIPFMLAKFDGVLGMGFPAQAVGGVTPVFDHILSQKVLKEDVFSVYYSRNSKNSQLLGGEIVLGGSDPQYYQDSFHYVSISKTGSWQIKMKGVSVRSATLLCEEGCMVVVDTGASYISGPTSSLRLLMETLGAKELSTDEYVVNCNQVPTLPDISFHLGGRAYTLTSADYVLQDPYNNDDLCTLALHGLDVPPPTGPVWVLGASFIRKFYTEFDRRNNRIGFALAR
Experimental: The hog renin inhibition assay was conducted in a manner similar to the human resin assay, with the following modification: Hog renin was purchased from Sigma Chemical Co. and the synthetic tetradecapeptide substrate was obtained from peninsula Labs Inc. In a final volume of 0.25 mL 100 mM Tris-acetate buffer at pH 7.4, 0.125 m units hog renin, 20 micromolar tetradecapeptide, 6 mM disodium EDTA, 3.2 mM phenylmethyl sulfonyl fluoride, 3 mM 8-hydroxyquinoline, 1.2 mg/mL BSA and 0.024 mg/mL neomycin sulfate were incubated for one hour at 37° C. in the presence or absence of renin inhibitors. The amount of angiotensin I produced was determined as for the human renin inhibition assay.

[1] = tested on: plasma renin activity (PRA); test: plasma renin activity (PRA) reduction in Rhesus monkeys, intravenous; conditions: Macaca mulatta, 0.25 h, furosemide pre-treated Rhesus monkeys, dose reducing PRA to 50% of pretreatment control, read-out: Rhesus (in vivo) PRA Reduction ED50
Experimental: The effect of inhibitor on plasma renin activity (PRA) in Rhesus monkeys was determined as follows: Rhesus monkeys were pre-treated with furosemide (0.2 mg/kg; i.m.) followed by another equal does 6 hours later. Then, 24 hours after the first treatment, the animals were chaired and blood samples collected for pre-treatment controls; immediately thereafter dosing with drug was started. The compounds were administered intravenously every 30 min and blood samples were collected 15 min after each administration. PRA was determined by the method of Sealey and Laragh Cardiovascular Med. 2, 1079-1092 (1977), and the concentration of angiotensin I produced was determined by radioimmunoassay.

Plasma Renin Activity = Plasma Renin Activity of Sodium-Depleted Marmoset, oral activity; format: in vivo, Common marmosets (Callithrix jacchus); conditions: 20 mg/kg IG
Experimental: The oral activity of compounds of Formula I was determined in vivo in Marmoset monkeys in accordance with the following procedure: Common marmosets (Callithrix jacchus, Charles River) were placed on a modified high protein low sodium diet (Purina, St. Louis, Mo.) for 1 to 2 weeks. On the day of the test an animal was anesthetized with isoflurane and cannulated in the femoral artery and vein for blood pressure monitoring, intravenous saralasin infusion and blood sampling. After allowing the animal to recover from surgery for 2 hr, saralasin was infused at 1 microgram/min for 15 minutes to confirm that the animal's blood pressure was dependent on angiotensin II levels. The marmoset was allowed to stabilize for 30 min after the saralasin infusion. The test compound was administered orally and blood pressure was monitored for 2 hr. Blood samples were taken in K-EDTA for plasma renin activity before, 30 min, and 1 hr after compound administration.

blood pressure = conditions: after the injection of hog renin into nephrectomized rats; cited from earlier work
[2] = tested on: aspartyl proteases such as pepsin, cathepsin D and renin; conditions: cited from earlier work

IC50 (human renin): 70 nM | IC50 (hog renin): 160 nM
Structure (SMILES): CC(C)C[C@H](NC(=O)[C@H](Cc1ccccc1)OC(=O)N1CCOCC1)C(=O)N[C@@H](CC1CCCCC1)[C@@H](O)[C@@H](O)CC(C)C [Example 6, O-(N-morpholinocarbonyl)-3-L-phenyllactyl-L-leucinamide of (2S,3R,4S)-2-amino-1-cyclohexyl-3,4-dihydroxy-6-methylheptane]
ED50 [1]: 0.012 mg/kg | Plasma Renin Activity (Plasma Renin Activity; 30 min, Animal No. 206): 2.2 ng AI/ml/hr | Plasma Renin Activity (Plasma Renin Activity; 30 min, Animal No. 207): 0.2 ng AI/ml/hr | Plasma Renin Activity (Plasma Renin Activity; 30 min, Animal No. 208): 1.0 ng AI/ml/hr | Plasma Renin Activity (Plasma Renin Activity; 60 min, Animal No. 206): 0.6 ng AI/ml/hr | Plasma Renin Activity (Plasma Renin Activity; 60 min, Animal No. 207): 0.9 ng AI/ml/hr | Plasma Renin Activity (Plasma Renin Activity; 60 min, Animal No. 208): 2.0 ng AI/ml/hr | Plasma Renin Activity (Plasma Renin Activity; Pretreatment, Animal No. 206): 16.3 ng AI/ml/hr | Plasma Renin Activity (Plasma Renin Activity; Pretreatment, Animal No. 207): 16.4 ng AI/ml/hr | Plasma Renin Activity (Plasma Renin Activity; Pretreatment, Animal No. 208): 15.7 ng AI/ml/hr

IC50 (human renin): 490 nM | IC50 (hog renin): 7200 nM
Structure (SMILES): CC(C)C[C@H](NC(=O)[C@H](Cc1ccccc1)OC(=O)N1CCOCC1)C(=O)N[C@@H](CC1CCCCC1)[C@@H](O)CO [Example 11, O-(N-morpholinocarbonyl)-3-L-phenyllactyl-L-leucinamide of (2S, 3R)-2-amino-1-cyclohexyl-3,4-dihydroxybutane]
ED50 [1]: 1.6 mg/kg | Plasma Renin Activity (Plasma Renin Activity; 30 min, Animal No. 205): 0.6 ng AI/ml/hr | Plasma Renin Activity (Plasma Renin Activity; 30 min, Animal No. 209): 1.1 ng AI/ml/hr | Plasma Renin Activity (Plasma Renin Activity; 30 min, Animal No. 221): 48.5 ng AI/ml/hr | Plasma Renin Activity (Plasma Renin Activity; 60 min, Animal No. 205): 4.5 ng AI/ml/hr | Plasma Renin Activity (Plasma Renin Activity; 60 min, Animal No. 209): 0.0 ng AI/ml/hr | Plasma Renin Activity (Plasma Renin Activity; 60 min, Animal No. 221): 24.9 ng AI/ml/hr | Plasma Renin Activity (Plasma Renin Activity; Pretreatment, Animal No. 205): 17.5 ng AI/ml/hr | Plasma Renin Activity (Plasma Renin Activity; Pretreatment, Animal No. 209): 39.3 ng AI/ml/hr | Plasma Renin Activity (Plasma Renin Activity; Pretreatment, Animal No. 221): 37.6 ng AI/ml/hr

IC50 (human renin): 100 nM | IC50 (hog renin): 6600 nM
Structure (SMILES): CC(C)C[C@H](NC(=O)[C@H](Cc1ccccc1)OC(=O)N1CCOCC1)C(=O)N[C@@H](CC1CCCCC1)[C@@H](O)[C@H](C)O [Example 9, O-(N-morpholinocarbonyl)-3-L-phenyllactyl-L-leucinamide of (2S,3R,4S)-2-amino-1-cyclohexyl-3,4-dihydroxypentane]

Structure (SMILES): CC(C)CC(=O)N[C@H](C(=O)N[C@H](C(=O)N[C@@H](CC(C)C)[C@@H](O)CC(=O)N[C@@H](C)C(=O)N[C@@H](CC(C)C)[C@@H](O)CC(=O)O)C(C)C)C(C)C [pepstatin] (Isovaleryl-VV[Sta]A[Sta]-OH)
blood pressure reduction in vivo (blood pressure): reduce blood pressure in vivo | inhibition of aspartyl proteases [2]: inhibitor of aspartyl proteases
